From ChEMBL document CHEMBL1158446, “Antimitotic activity of lobaric acid and a new benzofuran, sakisacaulon A from Stereocaulon sasakii” (Bioorg Med Chem Lett, 2009) come the findings set out here.

The test can be described thus: Inhibition of tubulin polymerization.

Each structure is given as a SMILES string. Active and inactive are the calls of the source. No cut-off for these calls is given here.

For `CCCCCc1c(C)c(O)cc(O)c1Oc1cc(OC)cc2c1C(=O)OC2CCCC` (stereo not drawn), the inhibition result was “inactive”.

Turning to `CCCCCc1cc(O)cc(O)c1Oc1cc(OC)cc2c1C(=O)OC2(O)CCCC` (stereo not drawn), the inhibition result is “inactive”.

On to `CCCCCc1c2c(cc(O)c1C(=O)O)OC(=O)c1c(cc(OC)cc1C(=O)CCCC)O2` [LOBARIC ACID], for which the IC50 came out at 100 µM.
